Several values for one entry are separate records, joined by “and”; a condition that tells them apart may be missing. Equal values may be shown once.
Tests used:
Neurokinin, NK3 (NKB) = Neurokinin, NK3 (NKB) (Homo sapiens, UniProt P29371); assay: Table 12 panel: NK3; conditions: 1.0E−6, average N=2, read-out: percentage inhibition of specific binding
Excerpt: (§1) The percentage inhibition (average; N=2) for these receptors is shown below in Table 12.
(§2) Values in Table 12 are expressed as percentage inhibition of specific binding, and these values represent the average of replicate tubes at each of the concentrations tested.

Dopamine Transporter = Dopamine Transporter (Homo sapiens, UniProt Q01959); assay: Table 12 panel: Dopamine Transporter; conditions: 1.0E−6, average N=2, read-out: percentage inhibition of specific binding
Excerpt: as §1, §2

Testosterone (cytosolic) = Testosterone (cytosolic) (Homo sapiens, UniProt P10275); assay: Table 12 panel: Testosterone; conditions: 1.0E−6, average N=2, read-out: percentage inhibition of specific binding
Chain of Testosterone (cytosolic) (P10275 whole entry): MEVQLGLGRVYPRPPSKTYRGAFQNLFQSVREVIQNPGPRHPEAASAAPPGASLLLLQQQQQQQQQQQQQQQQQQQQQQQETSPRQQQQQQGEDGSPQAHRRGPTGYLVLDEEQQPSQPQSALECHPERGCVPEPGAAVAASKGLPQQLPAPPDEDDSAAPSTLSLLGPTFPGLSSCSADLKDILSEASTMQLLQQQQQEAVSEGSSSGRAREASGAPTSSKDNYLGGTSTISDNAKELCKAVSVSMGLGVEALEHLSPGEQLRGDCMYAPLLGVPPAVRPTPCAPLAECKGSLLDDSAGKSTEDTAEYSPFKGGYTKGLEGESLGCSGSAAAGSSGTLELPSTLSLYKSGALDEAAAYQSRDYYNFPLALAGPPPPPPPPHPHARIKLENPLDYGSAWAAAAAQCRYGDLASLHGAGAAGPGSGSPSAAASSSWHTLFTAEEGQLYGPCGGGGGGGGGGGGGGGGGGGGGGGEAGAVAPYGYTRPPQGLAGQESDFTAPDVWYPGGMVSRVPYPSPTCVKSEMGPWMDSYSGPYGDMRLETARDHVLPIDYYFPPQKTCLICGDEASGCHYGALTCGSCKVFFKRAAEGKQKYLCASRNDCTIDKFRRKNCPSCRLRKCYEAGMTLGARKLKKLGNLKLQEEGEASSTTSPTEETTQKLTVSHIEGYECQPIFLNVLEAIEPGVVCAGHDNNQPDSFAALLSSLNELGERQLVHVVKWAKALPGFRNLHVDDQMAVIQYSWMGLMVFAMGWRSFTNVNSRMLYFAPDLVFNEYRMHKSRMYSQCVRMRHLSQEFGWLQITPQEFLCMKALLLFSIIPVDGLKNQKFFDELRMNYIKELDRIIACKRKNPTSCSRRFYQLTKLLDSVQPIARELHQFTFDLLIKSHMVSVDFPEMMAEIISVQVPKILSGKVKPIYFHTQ
Excerpt: as §1, §2

Adenosine, Non-selective = assay: Table 12 panel: Adenosine, Non-selective; assay type: binding; conditions: 1.0E−6, average N=2
Excerpt: as §1, §2

Histamine, H2 = Histamine, H2 (Homo sapiens, UniProt P25021); assay: Table 12 panel: Histamine, H2; conditions: 1.0E−6, average N=2, read-out: percentage inhibition of specific binding
Excerpt: as §1, §2

[1] = molecular target: Oxidase, MAO-B, Peripheral (Homo sapiens, UniProt P27338); assay: Table 12 panel: MAO-B; assay type: biochemical; conditions: 1.0E−6, average N=2
Chain of Oxidase, MAO-B, Peripheral (P27338 whole entry): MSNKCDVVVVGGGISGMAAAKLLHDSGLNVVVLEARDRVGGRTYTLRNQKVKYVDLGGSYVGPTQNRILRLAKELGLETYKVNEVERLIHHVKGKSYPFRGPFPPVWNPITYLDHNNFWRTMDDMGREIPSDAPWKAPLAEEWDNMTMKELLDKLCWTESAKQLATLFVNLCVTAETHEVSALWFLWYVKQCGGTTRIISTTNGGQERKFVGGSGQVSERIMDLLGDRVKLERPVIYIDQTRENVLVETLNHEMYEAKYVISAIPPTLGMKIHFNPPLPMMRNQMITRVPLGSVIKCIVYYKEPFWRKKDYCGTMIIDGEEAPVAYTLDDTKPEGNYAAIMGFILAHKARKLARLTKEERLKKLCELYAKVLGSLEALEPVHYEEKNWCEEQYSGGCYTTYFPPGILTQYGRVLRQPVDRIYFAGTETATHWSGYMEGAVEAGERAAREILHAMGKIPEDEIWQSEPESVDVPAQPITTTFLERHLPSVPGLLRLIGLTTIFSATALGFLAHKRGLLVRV
Excerpt: as §1, §2

Oxytocin = Oxytocin (Homo sapiens, UniProt P30559); assay: Table 12 panel: Oxytocin; conditions: 1.0E−6, average N=2, read-out: percentage inhibition of specific binding
Excerpt: as §1, §2

Estrogen = assay: Table 12 panel: Estrogen; assay type: binding; conditions: 1.0E−6, average N=2
Excerpt: as §1, §2

[2] = molecular target: Thyrotropin Releasing Hormone, TRH (Homo sapiens, UniProt P34981); assay: Table 12 panel: TRH; conditions: 1.0E−6, average N=2, read-out: percentage inhibition of specific binding
Chain of Thyrotropin Releasing Hormone, TRH (P34981 whole entry): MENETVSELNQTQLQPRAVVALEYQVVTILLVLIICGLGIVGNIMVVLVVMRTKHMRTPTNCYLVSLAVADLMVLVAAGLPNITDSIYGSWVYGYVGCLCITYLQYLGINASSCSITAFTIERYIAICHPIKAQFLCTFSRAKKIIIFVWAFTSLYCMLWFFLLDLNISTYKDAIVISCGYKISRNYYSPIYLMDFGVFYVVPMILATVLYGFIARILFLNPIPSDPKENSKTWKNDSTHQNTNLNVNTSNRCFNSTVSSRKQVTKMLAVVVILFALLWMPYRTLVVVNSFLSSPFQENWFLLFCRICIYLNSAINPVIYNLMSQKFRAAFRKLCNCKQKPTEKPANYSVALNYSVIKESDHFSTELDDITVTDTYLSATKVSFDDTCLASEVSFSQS
Excerpt: as §1, §2

Histamine, H3 = Histamine, H3 (Homo sapiens, UniProt Q9Y5N1); assay: biochemical; conditions: read-out: percentage inhibition of specific binding
Chain of Histamine, H3 (Q9Y5N1 whole entry): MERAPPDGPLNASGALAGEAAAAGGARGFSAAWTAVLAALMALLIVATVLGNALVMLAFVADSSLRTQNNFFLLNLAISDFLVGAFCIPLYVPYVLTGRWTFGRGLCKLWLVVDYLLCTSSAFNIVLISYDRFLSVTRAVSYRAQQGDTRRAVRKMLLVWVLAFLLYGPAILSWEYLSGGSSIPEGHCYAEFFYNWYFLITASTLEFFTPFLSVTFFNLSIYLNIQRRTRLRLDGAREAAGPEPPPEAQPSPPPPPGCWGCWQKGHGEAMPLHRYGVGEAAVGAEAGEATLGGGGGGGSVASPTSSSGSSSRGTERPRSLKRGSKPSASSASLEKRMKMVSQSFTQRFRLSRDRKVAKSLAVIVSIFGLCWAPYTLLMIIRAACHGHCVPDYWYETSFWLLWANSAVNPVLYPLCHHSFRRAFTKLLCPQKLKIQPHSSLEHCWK

[3] = molecular target: Norepinephrine Transporter (Homo sapiens, UniProt P23975); assay: Table 12 panel: Norepinephrine Transporter; conditions: 1.0E−6, average N=2, read-out: percentage inhibition of specific binding
Chain of Norepinephrine Transporter (P23975 whole entry, species assumed): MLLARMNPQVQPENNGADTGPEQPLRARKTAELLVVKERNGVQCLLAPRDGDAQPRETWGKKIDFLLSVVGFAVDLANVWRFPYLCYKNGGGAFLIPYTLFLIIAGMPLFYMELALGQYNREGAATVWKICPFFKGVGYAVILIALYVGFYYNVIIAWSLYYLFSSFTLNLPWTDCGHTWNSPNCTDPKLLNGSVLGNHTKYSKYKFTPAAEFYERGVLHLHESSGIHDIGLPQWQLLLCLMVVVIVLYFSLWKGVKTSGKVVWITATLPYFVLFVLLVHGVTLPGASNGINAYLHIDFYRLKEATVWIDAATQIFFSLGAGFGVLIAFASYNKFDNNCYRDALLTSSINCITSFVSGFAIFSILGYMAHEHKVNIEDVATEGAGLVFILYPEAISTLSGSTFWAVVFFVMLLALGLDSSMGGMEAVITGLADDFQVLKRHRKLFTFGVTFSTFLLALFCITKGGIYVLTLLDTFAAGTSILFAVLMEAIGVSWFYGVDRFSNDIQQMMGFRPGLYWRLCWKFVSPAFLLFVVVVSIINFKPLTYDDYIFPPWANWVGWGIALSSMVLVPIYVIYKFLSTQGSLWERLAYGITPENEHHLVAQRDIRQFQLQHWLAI
Excerpt: as §1, §2

[4] = molecular target: Cholecystokinin, CCK2 (CCKB) (Homo sapiens, UniProt P32239); assay: Table 12 panel: CCK2; conditions: 1.0E−6, average N=2, read-out: percentage inhibition of specific binding
Excerpt: as §1, §2

Glutamate, AMPA Site = assay: Table 12 panel: Glutamate, AMPA; assay type: binding; conditions: 1.0E−6, average N=2
Excerpt: as §1, §2

[5] = test system: Potassium Channel, Ca2+ Act., VI; assay: Table 12 panel: Potassium Channel, Ca2+ Act.; assay type: binding; conditions: 1.0E−6, average N=2
Excerpt: as §1, §2

[6] = test system: T1, Adrenergic, Alpha 1, Non-selective; assay: Table 12 panel: Adrenergic, Alpha 1; assay type: binding; conditions: Adrenergic, Alpha 1; 1.0E−6; average N=2
T1 construct: other: Adrenergic, Alpha 1; 1.0E−6; average N=2

[7] = molecular target: Cholecystokinin, CCK1 (CCKA) (Homo sapiens, UniProt P32238); assay: Table 12 panel: CCK1; conditions: 1.0E−6, average N=2, read-out: percentage inhibition of specific binding
Excerpt: as §1, §2

Bradykinin, BK2 = Bradykinin, BK2 (Homo sapiens, UniProt P30411); assay: Table 12 panel: Bradykinin, BK2; conditions: 1.0E−6, average N=2, read-out: percentage inhibition of specific binding
Excerpt: as §1, §2

Crl:CD-I(ICR)BR mice = assay: Acetic acid-induced abdominal spasm test in the mouse; assay type: in vivo; conditions: for Number of abdominal spasms recorded in a 25-minute period: oral
Procedure: The objective of this example was to determine the analgesic activity of HY-2901 (Also referred to herein as Compound 49a) following oral administration. Analgesic activity was assessed abdominal spasm test in the rat and mouse. Analgesic activity is also assessed using the tail clip test in the mouse, tail flick test in the rat, Randall-Selitto test in the rat and comparisons are made with a vehicle control group. Reference compounds ASA (acetylsalicylic acid) and morphine are also included for comparison.
The tail clip and tail flick test provide useful information about the central analgesic activity of the test article. The Randall-Selitto test provides information on the compound's ability to modify a hyperalgesic state and the abdominal spasm test provides information on the peripheral analgesic activity of the test article. The test article is administered by oral gavage, this being the intended clinical route of administration. The dose levels employed are expected to encompass the efficacy dose and provide an adequate safety margin.
All formulations were prepared on each day of dosing. The test article (HY-2901) was formulated in 0.25% (w/v) MC at the highest concentration required. Lower doses were obtained by serial dilution of the highest concentration using 0.25% (w/v) MC. The reference compound, acetylsalicylic acid, was formulated in 0.25% (w/v) MC at the required concentrations. Brewer's yeast was formulated in water for injection at the required concentration. Acetic acid was diluted with water for injection to provide the required concentration for administration.
An adequate number of male Crl:CD-I(ICR)BR mice and Wistar rats were obtained from Charles River (UK) Ltd., Margate, Kent. The mice were approximately 4 weeks of age and weigh between 18 and 22 g on arrival. The rats were approximately 5 weeks of age and weigh between 150 and 170 g on arrival. The age and weight of the animals at the start of the study was documented in the raw data and final report,
Each animal received a single administration of vehicle, test article or reference compound by oral gavage, using a constant dose volume 10 mL/kg. Individual dose volumes were based on individual body weights obtained on the day of dosing.
Forty-five minutes following oral administration each animal received a 0.25 mL intraperitoneal injection of 0.5% acetic acid. Animals were immediately placed into individual observation chambers and the number of abdominal spasms elicited over the subsequent 25-minute period was recorded.

CYP 1A2 = molecular target: T2, CYP 1A2 (Homo sapiens, UniProt P05177); assay: Cytochrome P450 inhibition, human microsomal preparation: CYP 1A2; assay type: in vitro ADME
T2 construct: in a commercially available human microsomal preparation; purchased; host or cells: human microsomal preparation
Procedure: (§3) Cytochrome P450 inhibition was studied with HY2901 in vitro. […] In addition, the in vitro rate of metabolism in rat, dog, monkey, and human hepatocyte cultures was determined for HY2901.

Beagles = assay: Acute dog study (toxicity and MTD, escalating oral doses); assay type: in vivo
[8] = as above; assay type: in vivo; conditions: male, Beagle, in vivo; dog, oral gavage
hERG = hERG (Homo sapiens, UniProt Q12809); conditions: human, 10 µM, pH 7.4
Chain of hERG (Q12809 whole entry): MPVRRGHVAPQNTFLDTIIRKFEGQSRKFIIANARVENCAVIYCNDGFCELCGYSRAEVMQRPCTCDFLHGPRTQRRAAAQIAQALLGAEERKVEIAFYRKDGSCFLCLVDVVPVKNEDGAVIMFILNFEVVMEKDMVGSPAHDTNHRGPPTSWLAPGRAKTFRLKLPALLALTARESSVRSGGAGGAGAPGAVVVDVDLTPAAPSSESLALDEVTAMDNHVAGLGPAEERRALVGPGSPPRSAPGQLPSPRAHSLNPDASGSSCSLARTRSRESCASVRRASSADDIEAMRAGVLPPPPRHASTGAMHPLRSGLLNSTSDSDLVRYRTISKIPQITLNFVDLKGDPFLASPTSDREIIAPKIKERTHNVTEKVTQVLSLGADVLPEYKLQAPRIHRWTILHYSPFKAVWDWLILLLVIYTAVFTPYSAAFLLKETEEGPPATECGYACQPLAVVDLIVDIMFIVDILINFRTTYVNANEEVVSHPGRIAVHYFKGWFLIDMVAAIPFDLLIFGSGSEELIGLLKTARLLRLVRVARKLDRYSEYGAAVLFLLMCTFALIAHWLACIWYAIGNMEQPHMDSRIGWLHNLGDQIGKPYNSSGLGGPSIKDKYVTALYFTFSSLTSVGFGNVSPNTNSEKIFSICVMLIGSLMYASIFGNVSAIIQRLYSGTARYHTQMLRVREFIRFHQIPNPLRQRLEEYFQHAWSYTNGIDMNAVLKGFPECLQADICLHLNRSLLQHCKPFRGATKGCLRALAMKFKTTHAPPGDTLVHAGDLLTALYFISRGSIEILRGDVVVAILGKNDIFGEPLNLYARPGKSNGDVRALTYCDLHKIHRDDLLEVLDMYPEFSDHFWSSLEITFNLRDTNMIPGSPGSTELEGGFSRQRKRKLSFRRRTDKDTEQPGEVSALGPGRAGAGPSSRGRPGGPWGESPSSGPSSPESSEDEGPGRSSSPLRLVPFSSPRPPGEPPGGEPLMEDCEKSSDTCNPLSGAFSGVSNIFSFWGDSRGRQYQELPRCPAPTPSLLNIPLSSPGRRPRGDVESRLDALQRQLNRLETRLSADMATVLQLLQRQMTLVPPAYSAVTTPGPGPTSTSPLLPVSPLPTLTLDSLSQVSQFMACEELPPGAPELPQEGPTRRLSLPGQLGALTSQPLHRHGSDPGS

CYP 2C9 = molecular target: T3, CYP 2C9 (Homo sapiens, UniProt P11712); assay: Cytochrome P450 inhibition: CYP 2C9; assay type: in vitro ADME; conditions: human microsomal preparation
T3 construct: in a commercially available human microsomal preparation; purchased; host or cells: human microsomal preparation
T3 sequence (P11712 whole entry): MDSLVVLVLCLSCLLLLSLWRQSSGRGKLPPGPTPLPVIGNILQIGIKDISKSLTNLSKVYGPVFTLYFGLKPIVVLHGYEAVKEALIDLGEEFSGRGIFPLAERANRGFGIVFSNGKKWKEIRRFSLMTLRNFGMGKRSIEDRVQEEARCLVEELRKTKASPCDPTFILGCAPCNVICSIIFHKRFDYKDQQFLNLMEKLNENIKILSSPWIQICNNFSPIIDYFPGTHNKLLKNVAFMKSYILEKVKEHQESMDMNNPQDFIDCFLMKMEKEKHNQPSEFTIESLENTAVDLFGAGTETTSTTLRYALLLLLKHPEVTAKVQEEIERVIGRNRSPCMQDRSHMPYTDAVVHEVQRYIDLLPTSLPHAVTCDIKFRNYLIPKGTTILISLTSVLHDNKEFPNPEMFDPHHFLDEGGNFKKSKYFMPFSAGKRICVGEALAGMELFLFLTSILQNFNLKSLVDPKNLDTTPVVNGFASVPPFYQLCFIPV
Procedure: as §3

[9] = Protein binding in rat plasma; assay type: in vitro ADME
Procedure: HY2901 was administered to rats, dogs, and cynomolgus monkeys at a dose of 3 mg/kg orally and intravenously. Plasma samples were collected from all species for pharmacokinetic analysis. […] HY2901 is 75% protein bound in rat plasma and 60% protein bound in human plasma.

Chain of Neurokinin, NK3 (NKB) (P29371 whole entry): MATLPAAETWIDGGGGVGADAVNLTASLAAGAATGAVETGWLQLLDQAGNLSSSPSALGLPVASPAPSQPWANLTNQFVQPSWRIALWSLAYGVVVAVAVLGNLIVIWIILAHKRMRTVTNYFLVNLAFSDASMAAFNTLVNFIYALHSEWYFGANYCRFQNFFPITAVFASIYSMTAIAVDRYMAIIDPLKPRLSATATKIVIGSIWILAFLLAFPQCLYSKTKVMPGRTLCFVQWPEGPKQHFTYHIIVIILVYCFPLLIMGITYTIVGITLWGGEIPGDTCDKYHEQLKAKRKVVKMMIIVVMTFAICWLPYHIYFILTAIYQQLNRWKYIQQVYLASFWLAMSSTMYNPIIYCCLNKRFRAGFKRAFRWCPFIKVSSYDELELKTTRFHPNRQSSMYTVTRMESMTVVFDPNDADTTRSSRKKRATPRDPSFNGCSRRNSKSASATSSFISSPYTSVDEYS

## CC(CC(=O)O)N1CCC(=C2c3ccc(F)cc3COc3ccccc32)CC1 (centres unmarked) [Compound 37]
Neurokinin, NK3 (NKB)
  inhibition at 1 µM: -0.23%
Dopamine Transporter
  inhibition at 1 µM: 2.14%
Testosterone (cytosolic)
  inhibition at 1 µM: 0.24%
Adenosine, Non-selective
  percentage inhibition of specific binding: 6.49%
Histamine, H2
  inhibition at 1 µM: 0.8%
[1]
  percentage inhibition: 4.24%
Oxytocin
  inhibition at 1 µM: -5.82%
Estrogen
  percentage inhibition of specific binding: −4.68%
[2]
  inhibition at 1 µM: -2.98%
Histamine, H3
  inhibition at 1 µM: 5.11%
[3]
  inhibition at 1 µM: 19.5%
[4]
  inhibition at 1 µM: 3.98%
Glutamate, AMPA Site
  percentage inhibition of specific binding: 3.59%
[5]
  percentage inhibition of specific binding: −12.71% ^
[6]
  percentage inhibition of specific binding: 6.56%
[7]
  inhibition at 1 µM: 8.92%
Bradykinin, BK2
  inhibition at 1 µM: -3.04%

## CC(C)(CN1CCC(=C2c3ccc(F)cc3COc3ccccc32)CC1)C(=O)O [Compound 49a]
Crl:CD-I(ICR)BR mice; oral 3 mg/kg
  Group mean (±sd) number of abdominal spasms recorded in a 25 minute period: 6 ± 6.2
Crl:CD-I(ICR)BR mice; oral 10 mg/kg
  Group mean (±sd) number of abdominal spasms recorded in a 25 minute period: 1 ± 2.0
Crl:CD-I(ICR)BR mice; oral 30 mg/kg
  Group mean (±sd) number of abdominal spasms recorded in a 25 minute period: 0 ± 0.0
Crl:CD-I(ICR)BR mice; 3 mg/kg, individual animal data (animals 7-12), listed as HY-2901, 3 mg/kg
  Number of abdominal spasms recorded in a 25-minute period: 0 (2×) and 1 and 10 and 7 and 15
Crl:CD-I(ICR)BR mice; 10 mg/kg, individual animal data (animals 13-18), listed as HY-2901, 10 mg/kg
  Number of abdominal spasms recorded in a 25-minute period: 0 (4×) and 2 and 5
Crl:CD-I(ICR)BR mice; 30 mg/kg, individual animal data (animals 19-24)
  Number of abdominal spasms recorded in a 25-minute period: 0
CYP 1A2
  inhibition of CYP 1A2 activity: did not inhibit
Beagles; 25 mg/kg oral gavage
  clinical signs of toxicity: No clinical signs of toxicity
Beagles; 40 mg/kg
  blood pressure: No significant changes
  heart rates: unaffected
Beagles; 40 mg/kg on Day 5
  clinical signs of toxicity: body tremors, mild to moderate ataxia, excessive salivation and hypoactivity
Beagles; 50 mg/kg oral gavage
  clinical signs of toxicity: Body tremors, mild to severe ataxia, and hypoactivity
Beagles; 75 mg/kg oral gavage
  clinical signs of toxicity: Tremors (entire body, hind limbs, and/or head), mild to moderate ataxia, hypoactivity
Beagles; escalating doses 25-75 mg/kg, 40 mg/kg Day 5
  body weight: minimal effect on body weight
[8]
  MTD at 5 days: 75 mg/kg
hERG
  hERG at micromolar (% blocking of the hERG channel): 10.9 @ 10%
CYP 2C9
  inhibition of CYP 2C9 activity: did not inhibit
[9]
  protein bound: 75%

Source: patent US7326721B2 (Hypnion, Inc., priority 2003, dated 2008)
